This test concerns the target wild type peptide labeled by tryptophane (Arabidopsis thaliana, UniProt Q94KI8). Nature of the test: Label-free MicroScale Thermophoresis (MST), CTH wild type peptide. The format is binding. The note with it: 750 nM tryptophane-containing target peptide, ligand 3 nM to 100 µM, PBS pH 7.5, 1 % DMSO, 0.1 % Pluronic, 25 °C, 80 % MST power, 100 % LED power, technical duplicates, read-out: dissociation constant (K D) of CTH homo-dimerization. How it is done:
For MST experiments, peptides corresponding to the consensus helical sequence (RSQRVDTLLHHMLGDEL) and the 3LA mutant (RSQRVDTAAHHMAGDEL) were synthesized (Peptide Speciality Laboratories GmbH, Heidelberg, Germany). To allow for label-free MST binding experiments, additional wild type and mutant peptides were synthesized, which were C-terminally extended by addition of two tryptophanes and a short linker (AAWW).
Labelfree MicroScale Thermophoresis binding experiments were performed in cooperation with the 2bind GmbH (Regensburg, Germany), using 750 nM tryptophane containing target peptide in PBS pH 7.5, 1 % DMSO, 0.1 % Pluronic with varied concentrations of the ligand peptide at 80 % MST power, 100 % LED power in hydrophilic zero background capillaries on a Monolith NT.labelfree device at 25 °C (NanoTemper Technologies, Munich, Germany). Normalized fluorescence data sets (WT peptide and MT peptide) were analyzed in the thermophoresis and temperature jump. For determination of the binding affinity (K D) of the wild type peptide, the recorded fluorescence was normalized to the fraction bound (0 = unbound, 1 = bound), and fitted using the K D fit formula derived from the law of mass action. Technical duplicates were performed for each experimental setup.
On the technique in general: MST reads how a fluorescent partner responds to local heating, with and without ligand.

Structures are written as SMILES. Residues, ends and D or L forms follow the SMILES beside them.

Take `CSCC[C@H](NC(=O)[C@H](Cc1c[nH]cn1)NC(=O)[C@H](Cc1c[nH]cn1)NC(=O)[C@H](CC(C)C)NC(=O)[C@H](CC(C)C)NC(=O)[C@@H](NC(=O)[C@H](CC(=O)O)NC(=O)[C@@H](NC(=O)[C@H](CCCNC(=N)N)NC(=O)[C@H](CCC(N)=O)NC(=O)[C@H](CO)NC(=O)[C@@H](N)CCCNC(=N)N)C(C)C)[C@@H](C)O)C(=O)N[C@@H](CC(C)C)C(=O)NCC(=O)N[C@@H](CC(=O)O)C(=O)N[C@@H](CCC(=O)O)C(=O)N[C@@H](CC(C)C)C(=O)O` [CTH peptide] (H-RSQRVDTLLHHMLGDEL-OH): the Kd was found to be 3.85 ± 1.1 µM.

Source of the values: article PMC4894940, “The function of the two-pore channel TPC1 depends on dimerization of its carboxy-terminal helix” (Cellular and Molecular Life Sciences: CMLS, 2016).
